From patent US11370774B2, “Substituted benzofuran, benzopyrrole, benzothiophene, and structurally related complement inhibitors” (BioCryst Pharmaceuticals, Inc., priority 2018, dated 2022)

Molecular target: Factor D (Homo sapiens (Human), UniProt P00746)
Assay: Factor D esterolytic assay (Z-Lys-SBzl substrate, DTNB, 405 nm)
Type: biochemical
Settings: Z-Lys-SBzl 1.29 mM, pH 7.5, 10% DMSO, tested a minimum of three times, read-out: Measured Ki (IC50) Value for Compounds: IC50
Outline: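 Thioester hydrolysis (Z-Lys-SBzl, 1.29 mM) by human Factor D ([…]) detected through DTNB color at 405 nm over 600 sec, minus 690 nm background. Buffer: 100 mM HEPES pH 7.5, 500 mM NaCl, 10% DMSO; optional room-temperature preincubation before substrate. IC50 derived from percent rate inhibition; at least three runs.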

Sequence of Factor D (P00746 26-253): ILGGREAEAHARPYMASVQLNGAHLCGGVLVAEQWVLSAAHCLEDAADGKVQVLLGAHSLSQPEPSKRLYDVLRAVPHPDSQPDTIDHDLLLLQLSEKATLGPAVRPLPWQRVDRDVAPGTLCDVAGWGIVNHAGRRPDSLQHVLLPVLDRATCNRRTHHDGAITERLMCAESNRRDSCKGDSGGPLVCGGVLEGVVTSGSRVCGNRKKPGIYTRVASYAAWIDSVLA

Row | SMILES | IC50 [µM]
1 | Cc1c[nH]c2cc(C(=O)Nc3ccccc3CC(=O)O)cc(-c3cccc(CN)c3)c12 [Compound 81d, 2-(2-(4-(3-(aminomethyl)phenyl)-3-methyl-1H-indole-6-carboxamido)phenyl)acetic acid] | > 10
2 | NCc1cccc(-c2cc(COc3ccccc3CC(=O)O)cc3cc(C4CCCC4)oc23)c1 [Compound 82f, 2-(2-((7-(3-(aminomethyl)phenyl)-2-cyclopentylbenzofuran-5-yl)methoxy)phenyl)acetic acid] | < 1
3 | NCc1cccc(-c2nc(C(=O)Nc3ccccc3CC(=O)O)cc3[nH]ccc23)c1 [Compound 83h, 2-(2-(4-(3-(aminomethyl)phenyl)-1H-pyrrolo[3,2-c]pyridine-6-carboxamido)phenyl)acetic acid] | < 1
4 | Cc1cc2cc(COc3ccccc3CC(=O)O)cc(-c3cccc(CN)c3)c2o1 [Compound 84f, 2-(2-((7-(3-(aminomethyl)phenyl)-2-methylbenzofuran-5-yl)methoxy)phenyl)acetic acid] | < 1
5 | N=C(N)c1cccc(-c2cc(COc3ccccc3CC(=O)O)cc3ccoc23)c1 [Compound 85c, 2-(2-((7-(3-carbamimidoylphenyl)benzofuran-5-yl)methoxy)phenyl)acetic acid] | < 1
6 | NC(=O)c1cccc(-c2cc(COc3ccccc3CC(=O)O)cc3ccoc23)c1 [Compound 85d, 2-(2-((7-(3-carbamoylphenyl)benzofuran-5-yl)methoxy)phenyl)acetic acid] | 1 to 10
7 | NCc1cccc(-c2cc(COc3ccccc3CC(=O)O)nc3[nH]ccc23)c1F [Compound 86b, 2-(2-((4-(3-(aminomethyl)-2-fluorophenyl)-1H-pyrrolo[2,3-b]pyridin-6-yl)methoxy)phenyl)acetic acid] | < 1
8 | Nc1nccc2ccc(-c3cc(COc4ccccc4CC(=O)O)cc4ccoc34)cc12 [Compound 87c, 2-(2-((7-(1-aminoisoquinolin-7-yl)benzofuran-5-yl)methoxy)phenyl)acetic acid] | > 10
9 | NCc1cccc(-c2cc(COc3ccccc3CC(=O)O)cc3cc(C4CC4)oc23)c1F [Compound 88b, 2-(2-((7-(3-(aminomethyl)-2-fluorophenyl)-2-cyclopropylbenzofuran-5-yl)methoxy)phenyl)acetic acid] | < 1
10 | Cc1cc(CN)cc(-c2cc(COc3ccccc3CC(=O)O)cc3ccoc23)c1 [Compound 89c, 2-(2-((7-(3-(aminomethyl)-5-methylphenyl)benzofuran-5-yl)methoxy)phenyl)acetic acid] | < 1
11 | NCc1nccc(-c2cc(COc3ccc(F)cc3CC(=O)O)cc3ccoc23)c1F [Compound 90d, 2-(2-((7-(2-(aminomethyl)-3-fluoropyridin-4-yl)benzofuran-5-yl)methoxy)-5-fluorophenyl)acetic acid] | < 1
12 | Cc1nc2cc(COc3ccccc3CC(=O)O)cc(-c3cccc(CN)c3)c2o1 [Compound 91h, 2-(2-((7-(3-(aminomethyl)phenyl)-2-methylbenzo[d]oxazol-5-yl)methoxy)phenyl)acetic acid] | < 1
13 | Cc1cc2cc(COc3ccccc3CC(=O)O)cc(-c3cccc(CN)c3F)c2o1 [Compound 92b, 2-(2-((7-(3-(aminomethyl)-2-fluorophenyl)-2-methylbenzofuran-5-yl)methoxy)phenyl)acetic acid] | < 1
14 | NCc1cccc(-c2cn3cccc3c(C(=O)Nc3ccccc3CC(=O)O)n2)c1 [Compound 93h, 2-(2-(3-(3-(aminomethyl)phenyl)pyrrolo[1,2-a]pyrazine-1-carboxamido)phenyl)acetic acid] | < 1
15 | NCc1cccc(-c2cc(COc3ccccc3CC(=O)O)cc3cc(CO)oc23)c1F [Compound 94c, 2-(2-((7-(3-(aminomethyl)-2-fluorophenyl)-2-(hydroxymethyl)benzofuran-5-yl)methoxy)phenyl)acetic acid] | < 1
16 | NCCc1cccc(-c2cc(COc3ccccc3CC(=O)O)cc3ccoc23)c1 [Compound 95c, 2-(2-((7-(3-(2-aminoethyl)phenyl)benzofuran-5-yl)methoxy)phenyl)acetic acid] | < 1
17 | COCc1cc2cc(COc3ccccc3CC(=O)O)cc(-c3cccc(CN)c3)c2o1 [Compound 96e, 2-(2-((7-(3-(aminomethyl)phenyl)-2-(methoxymethyl)benzofuran-5-yl)methoxy)phenyl)acetic acid] | < 1
18 | Cn1ccc2c(-c3cccc(CN)c3F)cc(COc3ccccc3CC(=O)O)cc21 [Compound 97b, 2-(2-((4-(3-(aminomethyl)-2-fluorophenyl)-1-methyl-1H-indol-6-yl)methoxy)phenyl)acetic acid] | < 1
19 | CC(O)c1cc2cc(COc3ccccc3CC(=O)O)cc(-c3cccc(CN)c3)c2o1 (centres unmarked) [Compound 98e, 2-(2-((7-(3-(aminomethyl)phenyl)-2-(1-hydroxyethyl)benzofuran-5-yl)methoxy)phenyl)acetic acid] | < 1
20 | COCc1cc2cc(COc3ccccc3CC(=O)O)cc(-c3cccc(CN)c3F)c2o1 [Compound 99b, 2-(2-((7-(3-(aminomethyl)-2-fluorophenyl)-2-(methoxymethyl)benzofuran-5-yl)methoxy)phenyl)acetic acid] | < 1
21 | CC(N)c1cccc(-c2cc(COc3ccccc3CC(=O)O)cc3ccoc23)n1 (centres unmarked) [Compound 100c, 2-(2-((7-(6-(1-aminoethyl)pyridin-2-yl)benzofuran-5-yl)methoxy)phenyl)acetic acid] | 1 to 10
22 | NCc1cccc(-c2cc(COc3ccccc3CC(=O)O)cn3ccnc23)c1 [Compound 102g, 2-(2-((8-(3-(aminomethyl)phenyl)imidazo[1,2-a]pyridin-6-yl)methoxy)phenyl)acetic acid] | < 1
23 | NCc1cccc(-c2cc(COc3ccccc3CC(=O)O)cc3cc(C(O)C(F)(F)F)oc23)c1 (centres unmarked) [Compound 103d, 2-(2-((7-(3-(aminomethyl)phenyl)-2-(2,2,2-trifluoro-1-hydroxyethyl)benzofuran-5-yl)methoxy)phenyl)acetic acid] | < 1
24 | CC(C)(O)c1cc2cc(COc3ccccc3CC(=O)O)cc(-c3cccc(CN)c3)c2o1 [Compound 104e, 2-(2-((7-(3-(aminomethyl)phenyl)-2-(2-hydroxypropan-2-yl)benzofuran-5-yl)methoxy)phenyl)acetic acid] | < 1

Results, then the compound that gave them:

Row | IC50 [µM] | SMILES
25 | < 1 | N[C@H](CO)c1cccc(-c2cc(COc3ccccc3CC(=O)O)cc3ccoc23)c1F [Compound 67c, (S)-2-(2-((7-(3-(1-amino-2-hydroxyethyl)-2-fluorophenyl)benzofuran-5-yl)methoxy)phenyl)acetic acid]
26 | < 1 | Cc1c(CN)cccc1-c1cc(COc2ccccc2CC(=O)O)cc2ccoc12 [Compound 68c, 2-(2-((7-(3-(aminomethyl)-2-methylphenyl)benzofuran-5-yl)methoxy)phenyl)acetic acid]
27 | < 1 | NCc1cc(F)cc(-c2cc(COc3ccccc3CC(=O)O)cc3[nH]ccc23)c1 [Compound 69e, 2-(2-((4-(3-(aminomethyl)-5-fluorophenyl)-1H-indol-6-yl)methoxy)phenyl)acetic acid]
28 | < 1 | NCc1cccc(-c2cc(COc3ccccc3CC(=O)O)cc3[nH]ccc23)c1 [Compound 70a, 2-(2-((4-(3-(aminomethyl)phenyl)-1H-indol-6-yl)methoxy)phenyl)acetic acid]
29 | < 1 | NCc1cccc(-c2cc(COc3ccccc3CC(=O)O)c3nccn3c2)c1 [Compound 71e, 2-(2-((6-(3-(aminomethyl)phenyl)imidazo[1,2-a]pyridin-8-yl)methoxy)phenyl)acetic acid]
30 | < 1 | C[C@H](N)c1cccc(-c2cc(COc3ccccc3CC(=O)O)cc3ccoc23)c1 [Compound 72c, (S)-2-(2-((7-(3-(1-aminoethyl)phenyl)benzofuran-5-yl)methoxy)phenyl)acetic acid]
31 | < 1 | NCc1cc(F)cc(-c2cc(COc3ccccc3CC(=O)O)cc3ccoc23)c1 [Compound 73c, 2-(2-((7-(3-(aminomethyl)-5-fluorophenyl)benzofuran-5-yl)methoxy)phenyl)acetic acid]
32 | < 1 | NCc1cc(-c2cc(COc3ccccc3CC(=O)O)cc3ccoc23)ccn1 [Compound 74c, 2-(2-((7-(2-(aminomethyl)pyridin-4-yl)benzofuran-5-yl)methoxy)phenyl)acetic acid]
33 | < 1 | NCc1c(F)ccc(-c2cc(COc3ccccc3CC(=O)O)cc3ccoc23)c1F [Compound 75c, 2-(2-((7-(3-(aminomethyl)-2,4-difluorophenyl)benzofuran-5-yl)methoxy)phenyl)acetic acid]
34 | < 1 | NCc1cccc(-c2cc(COc3ccccc3CC(=O)O)cc3cc(CO)oc23)c1 [Compound 76f, 2-(2-((7-(3-(aminomethyl)phenyl)-2-(hydroxymethyl)benzofuran-5-yl)methoxy)phenyl)acetic acid]
35 | < 1 | N[C@H](CO)c1cc(-c2cc(COc3ccccc3CC(=O)O)cc3ccoc23)ccn1 [Compound 77c, (S)-2-(2-((7-(2-(1-amino-2-hydroxyethyl)pyridin-4-yl)benzofuran-5-yl)methoxy)phenyl)acetic acid]
36 | < 1 | C[C@@H](N)c1cccc(-c2cc(COc3ccccc3CC(=O)O)cc3ccoc23)c1 [Compound 78c, (R)-2-(2-((7-(3-(1-aminoethyl)phenyl)benzofuran-5-yl)methoxy)phenyl)acetic acid]
37 | < 1 | NCc1cccc(-c2cc(COc3ccccc3CC(=O)O)cc3ccoc23)n1 [Compound 79c, 2-(2-((7-(6-(aminomethyl)pyridin-2-yl)benzofuran-5-yl)methoxy)phenyl)acetic acid]
38 | < 1 | NCc1nccc(-c2cc(COc3ccccc3CC(=O)O)cc3ccoc23)c1F [Compound 80e, 2-(2-((7-(2-(aminomethyl)-3-fluoropyridin-4-yl)benzofuran-5-yl)methoxy)phenyl)acetic acid]
